Drawing on PubChem BioAssay (NCI), this text covers TGI and GI50 for nine compounds.

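Dose response: 5 concentrations. Exposure: 48 h. Format: 96-well plates. Endpoint: linear interpolation; highest concentration if not reached. Here, GI50 denotes the concentration required for 50% inhibition of growth. TGI: total growth inhibition.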

Test in all cases: NCI anticancer screen, dose series, 48 h
Experiment [1] deals with KM12 colon.
Experiment [2] has as its system SF-295 CNS.
In experiment [3] the test system is LOX IMVI melanoma.
For experiment [4], the system named is NCI-H23 lung.
Experiment [5] deals with SF-268 CNS.
In experiment [6] the test system is RXF 393 renal.
Experiment [7] deals with RPMI-8226 leukemia.
For experiment [8], the system named is CAKI-1 renal.
For experiment [9], the system named is HL-60(TB) leukemia.
The subject of experiment [10] is OVCAR-5 ovarian.

Take `CS[C@]12C(=O)C[C@@]3(C)[C@@H](CC[C@]3(O)C(=O)CO)[C@@H]1CCC1=CC(=O)CC[C@@]12C`: the TGI in experiment [1], in [2], in experiment [3], in experiment [4], in experiment [5] and in experiment [6] was more than 100 µM throughout. Besides, the TGI in experiment [7], in experiment [8], in [9] and in experiment [10] was more than 100 µM each time.

With `C[Si](C)(C)c1ccc(-c2sc(-c3ccc([Si](C)(C)C)s3)c3c2C[Si]2(C3)Cc3c(-c4ccc([Si](C)(C)C)s4)sc(-c4ccc([Si](C)(C)C)s4)c3C2)s1`, the TGI in experiment [1], in [2], in experiment [3], in [4], in experiment [5] and in experiment [6] was more than 100 µM in each case. Further, the TGI in experiment [7], in [8], in experiment [9] and in experiment [10] was more than 100 µM in each case.

In the case of `C/C=C(\C)C(=O)O[C@H]1C=CC(=O)O[C@@H]1CC[C@H](O)[C@H](C)O`, the GI50 in [1] was 48200 nM; in [2], more than 100000 nM; in experiment [3] it was 27.5 µM; in experiment [4] it was 69.1 µM; in experiment [5] it was 28.8 µM; in experiment [6], 49.5 µM. In addition, the GI50 in [7] is 22.8 µM; in experiment [8] it was 27.3 µM; in [9], 5.71 µM; in experiment [10], more than 100 µM. In addition, the TGI in experiment [1] is more than 100 µM; in [2], more than 100 µM; in [3] it was more than 78.7 µM; in experiment [4] it was more than 100 µM; in [5], more than 100 µM; in experiment [6], more than 88.7 µM. Further, the TGI was 58.7 µM in [7], 68.4 µM in [8], 36.3 µM in experiment [9] and more than 100 µM in [10].

Take `Cc1ccc(C)c(NC(=O)CC/C(=N\NC(=O)c2c(O)ccc3ccccc23)C(C)C(=O)c2ccc(O)cc2)c1` (stereo not given): the TGI is more than 100 µM in [1]; more than 100 µM in experiment [2]; 39.6 µM in experiment [3]; 91.3 µM in experiment [4]; more than 100 µM in experiment [5]; more than 100 µM in experiment [6]. In addition, the TGI in experiment [7], in experiment [8], in experiment [9] and in [10] was more than 100 µM throughout.

With `O=S1(=O)OCCOS(=O)(=O)C1Cc1ccccc1`, the TGI in experiment [1], in experiment [2], in experiment [3], in [4], in experiment [5] and in experiment [6] was more than 100 µM each time. The TGI was 69.2 µM in [7], more than 100 µM in [8], 54.5 µM in experiment [9] and more than 100 µM in experiment [10].

Consider `CC1(C)[C@@H](OC(N)=O)[C@H]2O[C@H]2[C@]2(CO)[C@H]3CC[C@]4(C)[C@@H](c5ccc(=O)oc5)[C@@H](Cl)C[C@]4(O)C3=CC[C@@H]12`, for which the GI50 is 10.7 nM in experiment [1]; 7.2 nM in experiment [2]; 0.00595 µM in experiment [3]; 0.00552 µM in experiment [4]; 0.00457 µM in experiment [5]; 0.00716 µM in [6]. Further, the GI50 in experiment [7] is less than 0.011 µM; in [8], 0.00521 µM; in [9], 0.00609 µM; in experiment [10] it was 0.00821 µM. Besides, the TGI came to 0.0445 µM in experiment [1]; 0.0264 µM in [2]; 0.0157 µM in experiment [3]; 0.0152 µM in experiment [4]; 0.00892 µM in experiment [5]; 0.0829 µM in experiment [6]. Also, the TGI in [7] turned out to be 0.126 µM; in experiment [8], 0.0132 µM; in [9], 0.014 µM; in experiment [10], 0.0342 µM.

For `CC#CC(=O)SCCNC(=O)CC`, the TGI in experiment [1] was more than 10 µM; in [2], more than 10 µM; in [3] it was more than 10 µM; in experiment [4] it was more than 10 µM; in [5], more than 10 µM; in experiment [6], more than 9.55 µM. Also, the TGI in [7], in experiment [8], in [9] and in experiment [10] was more than 10 µM throughout.

Consider `C[CH2][Sn]([CH2]C)([O]C(=O)C(OC(C)=O)c1ccccc1)[O]C(=O)C(OC(C)=O)c1ccccc1` (stereo not given), for which the GI50 in experiment [1] is more than 100000 nM; in [2], more than 100000 nM; in [3], 18.2 µM; in [4], 15.5 µM; in experiment [5], 16.6 µM; in [6], 18.6 µM. Further, the GI50 was 11.2 µM in experiment [7], 72 µM in experiment [8], 10 µM in experiment [9] and 41.2 µM in [10]. For the same compound, the TGI is more than 100 µM in experiment [1]; more than 100 µM in [2]; 35.4 µM in experiment [3]; 29.8 µM in [4]; 31.8 µM in [5]; 33.1 µM in [6]. Moreover, the TGI in experiment [7] is 36.9 µM; in [8], more than 100 µM; in [9], 29.8 µM; in [10] it was more than 100 µM.

For `O=C(Nc1ccc(Cl)cc1)Nc1ccc(Nc2nncc3ccccc23)cc1`, the GI50 is 1470 nM in experiment [1]; 2840 nM in [2]; 0.825 µM in experiment [3]; 3.07 µM in [4]; 3.19 µM in [5]; 4.28 µM in experiment [6]. Further, the GI50 in experiment [7] is 2.5 µM; in [8], 1.97 µM; in experiment [9], 2.42 µM; in experiment [10], 4.15 µM. The TGI is 11.4 µM in experiment [1]; 11 µM in [2]; 14.6 µM in experiment [3]; 14.4 µM in [4]; 28.1 µM in [5]; 21.4 µM in experiment [6]. Besides, the TGI in experiment [7] stood at 8.75 µM; in [8], 12.5 µM; in experiment [9], 7 µM; in [10], 34.3 µM.
